{
  "source": "patent EP1263420B1",
  "about": "(priority 2000, dated 2001)",
  "key": {"lung tissue RARs": {"system": "lung tissue RARs", "assay": "Western blot of SENCAR mouse lung tissue after dietary RA", "format": "in vivo", "experimental": "(§1) The experimental groups were divided in two groups of five mice (Table 5) each including a low and high dose group that were fed either a physiological RA diet of 3µg/g diet) or a pharmacological RA diet (30µg/g diet) for 75 weeks, respectively.\n(§2) SENCAR mice (30) were divided into six experimental groups. The experimental groups were as follows (Table 7): groups 1, 3 and 5 (5 mice each) were fed a physiological RA diet (3µg/g diet) for 1, 14 and 28 days; groups 2, 4 and 6 (each of 5 mice) were fed a pharmacological RA diet (30µg/g diet) for 1, 14 and 28 days.\n(§3) Polyclonal rabbit anti-mouse antibodies against RAR, and (SANTA CRUZ Biotechnology Inc., San Francisco, CA) were used. BM Chemiluminescense Western Blotting Kit (Mouse/Rabbit) was used (Boehringer Mannheim Corporation, Indianapolis) for the Westerns.\nTissues were collected, frozen in dry ice and kept at -70°C until used. 500mg aliquots were diced in small pieces and homogenized in 300µl of cold PBS, using the hand held homogenizer for 2~3 minutes. Sample and washes were centrifuged at 5000xg for 20 minutes. The pellet was suspended in 400 µl of ice-cold Buffer A [2µl 0.5M EDTA, 10µl 100mM EGTA, 50µl 100mM PMSF, 10µl 1M DTT, 10ml (10mM HEPES pH 7.9 + 10mM KCl)], and left at ice temperature for 15 minutes. 25 µl of 10% solution of NP-40 was added and samples were mixed in a vortex vigorously for 10 seconds. […]"}, "TGase II [1]": {"system": "TGase II", "assay": "TGase II assay of SENCAR mouse liver tissue after dietary RA", "format": "in vivo", "conditions": "75 Weeks", "experimental": "The supernatant was removed and kept in ice until used.\nReactions were slowed down in an ice bath. […] Protein concentration determination was conducted by the Bradford method."}, "TGase II [2]": {"system": "TGase II", "assay": "TGase II activity in cultured MCF-7 cells", "format": "cell-based, human", "experimental": "MCF-7 cells were seeded at a density of 1.5 x 10^5 cells/ml medium (500ml DMEM + 56.2ml FBS + 5.6m1 AB/AM) in 6cm diameter dishes for 24 hours and treated with either DMSO, RA, or 13-cis RA at 10^-6 M and grown to confluence (about 72 hours). Cells were harvested and Transglutaminase II activity was measured as described below. Nebulizer solution, inhalation procedures, details of animal housing are described below.\nCultured cells were placed in 100 µl scraping buffer [A: 2800µl (400µl 0.5M Na-Phosphate, 500µl 0.01M EDTA, 100µl 1M DTT , 9ml PBS total 10ml) + B:700µl (10µl 20mg/ml PMSF 790µl PBS total 800µl)] for each dish. Cells were broken by a sonicator and kept in ice until used. TGase II assay was conducted as described below and previously {8217}.\nEnzyme assay mixtures were prepared by adding 80µl of SUBSTRATE mixture (322.8µl H2O, 120µl 0.5M NaBorate, 60µl 0.01M EDTA, 60µl 0.1M CaCl2, 6µl 1M DTT, 240µl dimethyl casein, 30µl Triton X-100, 1.2µl [^3H]-Putrescine, 120µl Putrescine) to 20µl sample, 20µl scraping buffer for blank control , 20 µl (18µl scraping buffer + 2µl TGase II) for positive control. Samples were mixed in 15ml tubes, the tubes were shaken before putting them into a 28°C water bath for 30 minutes. Reactions were slowed down in an ice bath. 80µl of the incubation mixture was adsorbed onto paper disks. These were immediately dropped into cold 10% TCA (0.1% Putrescine) and washed with agitation for 7 minutes, followed by 2 additional washes with 5% TCA (0.05% putrescine) for 5~7 minutes, and once more with cold (-20°C) 95% ethanol for 5 minutes. Paper disks were dried and placed into 5ml Aquasol, and counted in a Liquid Scintillation Counter. Protein concentration determination was conducted by the Bradford method."}, "RARγ": {"system": "RARγ", "assay": "Western blot of SENCAR mouse liver after dietary RA", "format": "in vivo", "conditions": "for RARγ densitometric analysis: male SENCAR mouse liver", "experimental": "as §1, §2, §3\n(§4) Tissues were collected, frozen in dry ice and kept at -70°C until used. 500mg aliquots were diced in small pieces and homogenized in 300µl of cold PBS, using the hand held homogenizer for 2~3 minutes. Sample and washes were centrifuged at 5000xg for 20 minutes. The pellet was suspended in 400 µl of ice-cold Buffer A [2µl 0.5M EDTA, 10µl 100mM EGTA, 50µl 100mM PMSF, 10µl 1M DTT, 10ml (10mM HEPES pH 7.9 + 10mM KCl)], and left at ice temperature for 15 minutes. 25 µl of 10% solution of NP-40 was added and samples were mixed in a vortex vigorously for 10 seconds. Samples were centrifuged at 14,000xg for 1 minute at 4°C and the pellet treated once more in this fashion (resuspended etc.). The supernatant was removed and 100µl of ice-cold Buffer C [4µl 0.5M EDTA, 20µl 100mM EGTA, 20µl 100mM PMSF, 2µl 1 M DTT, 2ml (20mM HEPES pH 7.9 + 0.4M NaCl)] was added. Pellets were resuspended by tapping gently on the bottom of the Eppendorf tubes. Samples were rocked vigorously in a bucket of ice on an orbital shaker for 30 minutes. Samples were centrifuged at 14,000 xg for 5 minutes at 4°C. Protein determination of supernatant was conducted by the Bradford method.\n(§5) Samples were prepared by adding one part of the Sample Buffer to one part of the sample and mixing well. Samples were heated at 95°C for 5 minutes to induce denaturation. 5µl of Rainbow Standard and 5µl ofBiotinylated Molecular Marker were added to parallel wells. 20µg protein per sample was loaded in each lane. Electrophoresis was performed with voltage set at 125V for about 1 ~ 1.5 hours. Gel transfer was executed at 25V for 2 hours. The membrane was stained in Ponceau S. for 5 minutes and destained with one wash of 5% acetic acid. The membrane was then washed in TBS solution until the staining disappeared. Membranes were incubated in 1ml blocking solution and 9ml TBS for 60 minutes. Membranes were incubated in 1ml of blocking solution and 19ml TBS along with 20µl primary antibody solution overnight (dilution of 1 : 1000). Membranes were washed in PBS-Tween 20, 3 times for 10 minutes each. They were finally incubated in 1ml blocking solution and 19ml TBS along with 20µl Antibiotin HRP - Linked Antibody and 2µl of secondary (rabbit anti-mouse antibody) (1 : 10,000 dilution) for 30 minutes. The membranes were washed in PBS - Tween 20, 4 times for 10 minutes each. The film was exposed for development and detection."}, "RARβ": {"system": "RARβ", "assay": "Western blot of SENCAR mouse liver after dietary RA", "format": "in vivo", "conditions": "for RARβ densitometric analysis: male SENCAR mouse liver", "experimental": "as §1, §2, §3, §4, §5"}, "RARα": {"system": "RARα", "assay": "Western blot of SENCAR mouse liver after dietary RA", "format": "in vivo", "conditions": "for RARα densitometric analysis: male SENCAR mouse liver", "experimental": "as §1, §2, §3, §4, §5"}, "[3]": {"conditions": "30µg/g diet versus 3µg/g diet, 75 weeks"}, "[4]": {"conditions": "pharmacological dietary RA over physiological RA (3µg/g diet), day 1"}},
  "note": "“Also recorded” adds a separate entry of the source.",
  "data": [
    {"smiles": "CC1=C(/C=C/C(C)=C/C=C/C(C)=C/C(=O)O)C(C)(C)CCC1", "note": "[RA, all-trans-retinoic acid]", "values": [
      {"measurement": "induction of lung tissue RARs", "setting": "lung tissue RARs; long term feeding, 30µg/g diet", "result": "failed to induce RARs"},
      {"measurement": "effect on lung tissue RARs", "setting": "lung tissue RARs; time course 1, 14 and 28 days, 30µg/g versus 3µg/g diet, not shown", "result": "no effect; also recorded: without any measurable effect on lung tissue RARs"},
      {"measurement": "TGase II assay DPM/µg protein", "setting": "TGase II [1]; pharmacological RA diet 30µg/g", "result": "49,260 DPM/µg protein"},
      {"measurement": "TGase II assay DPM/µg protein", "setting": "TGase II [1]; physiological RA diet 3µg/g", "result": "9,820 DPM/µg protein"},
      {"measurement": "fold induction at 1 µM", "setting": "TGase II [2]; Homo sapiens, MCF7, 72 h, read-out: stimulating TGase II activity", "result": 7.4},
      {"measurement": "TGase II Activity", "setting": "TGase II [2]; MCF-7 cells, 10^-6 M, 72 hours, DMSO control 0.183", "result": "1.359 +/- 0.098 picomoles/µg protein/30 minutes"},
      {"measurement": "upregulated liver RAR (γ)", "setting": "RARγ; [3]", "result": 12.5, "unit": "fold"},
      {"measurement": "RARγ densitometric analysis", "setting": "RARγ; 3pg/g diet as printed, 75 weeks", "result": "23.1 +/- 6.7 IDV"},
      {"measurement": "RARγ densitometric analysis", "setting": "RARγ; 30µg/g diet, 75 weeks", "result": "288 +/- 17.4 IDV"},
      {"measurement": "stimulated liver RAR (γ)", "setting": "RARγ; [4]", "result": 2.1, "unit": "fold"},
      {"measurement": "upregulated liver RAR (β)", "setting": "RARβ; [3]", "result": 13.5, "unit": "fold"},
      {"measurement": "RARβ densitometric analysis", "setting": "RARβ; 3µg/g diet, 75 weeks", "result": "18.9 +/- 7.4 IDV"},
      {"measurement": "RARβ densitometric analysis", "setting": "RARβ; 30µg/g diet, 75 weeks", "result": "254 +/- 31.9 IDV"},
      {"measurement": "stimulated liver RAR (β)", "setting": "RARβ; [4]", "result": 4, "unit": "fold"},
      {"measurement": "upregulated liver RAR (α)", "setting": "RARα; [3]", "result": 21.8, "unit": "fold"},
      {"measurement": "RARα densitometric analysis", "setting": "RARα; 3µg/g diet, 75 weeks", "result": "12.1 +/- 7.2 IDV"},
      {"measurement": "RARα densitometric analysis", "setting": "RARα; 30µg/g diet, 75 weeks", "result": "264 +/- 21.3 IDV"},
      {"measurement": "stimulated liver RAR (α)", "setting": "RARα; [4]", "result": 2, "unit": "fold"}
    ]}
  ]
}
